Laboratory results from patent publication EP0326490B2, “Synthetic peptides and mixtures thereof for detecting HIV antibodies” (ADALTIS INC., priority 1988, dated 2004).
Positions of bridges follow the written chain, without caps; N, C: chain ends. Residues, ends and D or L forms follow the SMILES beside them.

Experiments:
HIV-2 positive sera = experiment: ELISA, single peptides identifying HIV-2 positive sera; assay type: binding, human; details: single peptide
Procedure: A preferred convenient and classical technique for the determination of antibodies against AIDS virus using a peptide or a peptide mixture of the present invention is an enzyme-linked immunosorbent assay (ELISA). According to this test a peptide or a peptide mixture of the present invention is adsorbed onto the wells of a microtiter plate. The wells are then treated with sera to be tested. After washing, anti-human IgG labeled with peroxidase is added to the wells. The determination of the peroxidase is performed with a corresponding substrate, e.g. with o-phenylene diamine. Also in this procedure the peroxidase can be exchanged by another label, e.g. by a radioactive or fluorescence label. […]
TABLE 4 provides the results of single peptides which were individually evaluated in identifying known HIV-2 positive sera.
Each well of the microtiter plate is saturated with 100 µl of a solution containing a peptide or mixture of peptides (5 µg/ml) and left overnight. […] Serum samples to be analyzed are diluted with specimen buffer (washing buffer plus casein, 0.05% w/v). […] After 10 minutes the contents of each well is treated with 0.1 ml 2N H2SO4 and the optical density read at 450 nm. […]

HIV-1 positive sera = experiment: ELISA, single peptides identifying HIV-1 positive sera; assay type: binding, human; details: single gp41 or gp120 peptide
Procedure: According to this test a peptide or a peptide mixture of the present invention is adsorbed onto the wells of a microtiter plate. The wells are then treated with sera to be tested. After washing, anti-human IgG labeled with peroxidase is added to the wells. The determination of the peroxidase is performed with a corresponding substrate, e.g. with o-phenylene diamine. Also in this procedure the peroxidase can be exchanged by another label, e.g. by a radioactive or fluorescence label.
(§1) Each well of the microtiter plate is saturated with 100 µl of a solution containing a peptide or mixture of peptides (5 µg/ml) and left overnight. The wells are emptied and washed twice with a washing buffer (Tris, 0.043M; NaCl, 0.5M;thimerosal, 0.01% w/v; Tween 20, 0.05% v/v; pH 7.4). The wells are then saturated with […] of washing buffer for 1 hr. at 37°C and washed once with the same buffer. Serum samples to be analyzed are diluted with specimen buffer (washing buffer plus casein, 0.05% w/v). The bells are rinsed with washing buffer prior to the addition of the diluted serum sample (0.1 ml). These are left to incubate for 1 hr. at room temperature. The wells are then emptied, washed twice rapidly and then once for two minutes with washing buffer. […] The wells are then emptied and washed twice rapidly with washing buffer and then five times in which the buffer was in contact with the well 2 minutes per washing. The substrate solution (3,3', 5,5'-tetramethylbenzidine, 8 mg per ml of DMSO) is diluted with 100 volumes 0.1 M citrate-acetate buffer, pH 5.6 containing 0.1% v/v of 30% H2O2 and added to each well (0.1 ml per well). After 10 minutes the contents of each well is treated with 0.1 ml 2N H2SO4 and the optical density read at 450 nm. All determinations are done in duplicate.

HIV-1-antibodies = experiment: ELISA optical density of serially diluted sera, cyclic versus non-cyclic peptides; assay type: binding, human; details: coated at 0.5 µg/ml
Text: TABLE 5 is provided to illustrate the sensitivity of cyclic versus non-cyclic peptides in the ELISA test by comparing the results of some sera at various dilutions.
Even though results presented in TABLE 5 clearly show the superiority of cyclic peptides over their linear counterpart in detecting HIV-1-antibodies, that increased sensitivity could have been underestimated because of probable cyclization and polymerization of the linear peptide after solubilization in a carbonate buffer (pH 9.6). That experiment was repeated with the linear 87 and cyclic 87c peptides dissolved in a carbonate buffer (pH 9.6) as before and also in 10% acetic acid (pH 2.7). […] It is believed that cyclization and polymerization also occured in the wells of the microtiter plates although the exact proportion of cyclic peptide bound to the plates versus linear has not been as yet determined. […]
as §1

[1] = system: HIV-1 positive serum samples; experiment: ELISA serum titers on plates coated with cyclic versus linear peptide; assay type: binding, human; details: for serum titer (serum dilution giving an absorbancy reading of 1.0): coated at 10 µg/ml
Text: (§2) Even though results presented in TABLE 5 clearly show the superiority of cyclic peptides over their linear counterpart in detecting HIV-1-antibodies, that increased sensitivity could have been underestimated because of probable cyclization and polymerization of the linear peptide after solubilization in a carbonate buffer (pH 9.6). That experiment was repeated with the linear 87 and cyclic 87c peptides dissolved in a carbonate buffer (pH 9.6) as before and also in 10% acetic acid (pH 2.7). […] It is believed that cyclization and polymerization also occured in the wells of the microtiter plates although the exact proportion of cyclic peptide bound to the plates versus linear has not been as yet determined.
Plates used in this experiment were coated with solutions of peptides at 10 µg/ml. (Experimental results of TABLE 5 were obtained with plates coated with peptides at 0.5 µg/ml). Four different HIV-1 positive serum samples were serially diluted and their titers determined. The titer was defined as the serum dilution giving an absorbancy reading of 1.0 in the conditions of the ELISA procedure already described.
The ratios of sensitivities measured with the cyclic peptide over the linear 87 peptide vary between 1.3 and 2.2 with an average of 1.8. These ratios are even larger, varying from 3.0 to 4.5, when the sensitivity of the ELISA test using the cyclic 87c peptide is compared using conditions (acidic pH) where the linear 87 peptide remains linear and is not allowed to cyclize or polymerize.
as §1

[2] = Stability of linear and cyclic peptide in coating buffers (HPLC, Ellman's test); assay type: physicochemical; details: 10% acetic acid (pH 2.7)
Text: as §2

SMILES: CC[C@H](C)[C@H](NC(=O)[C@H](CCC(=O)O)NC(=O)[C@@H](NC(=O)[C@@H](N)CC(C)C)C(C)C)C(=O)N[C@H](C(=O)N1CCC[C@H]1C(=O)N[C@H](C(=O)NCC(=O)N[C@@H](Cc1ccccc1)C(=O)N[C@@H](C)C(=O)N1CCC[C@H]1C(=O)N[C@H](C(=O)N[C@@H](CCCCN)C(=O)N[C@@H](CCC(=O)O)C(=O)N[C@@H](CCCCN)C(=O)N[C@@H](CCCNC(=N)N)C(=O)N[C@@H](Cc1ccc(O)cc1)C(=O)N[C@@H](CO)C(=O)N[C@@H](CO)C(=O)N[C@@H](C)C(=O)N[C@@H](Cc1c[nH]cn1)C(=O)NCC(=O)N[C@@H](CCCNC(=N)N)C(=O)O)[C@@H](C)O)[C@@H](C)CC)[C@@H](C)O [Peptide 203]
- %Positive sera correctly Identified (HIV-2 positive sera): 100%

SMILES: CC[C@H](C)[C@H](NC(=O)[C@H](CCC(=O)O)NC(=O)[C@@H](NC(=O)[C@@H](N)CC(C)C)C(C)C)C(=O)N[C@H](C(=O)N1CCC[C@H]1C(=O)N[C@H](C(=O)NCC(=O)N[C@@H](Cc1ccccc1)C(=O)N[C@@H](C)C(=O)N1CCC[C@H]1C(=O)N[C@H](C(=O)N[C@@H](CCCCN)C(=O)N[C@@H](CCC(=O)O)C(=O)N[C@@H](CCCCN)C(=O)N[C@@H](CCCNC(=N)N)C(=O)O)[C@@H](C)O)[C@@H](C)CC)[C@@H](C)O [Peptide 204]
- %Positive sera correctly Identified (HIV-2 positive sera): 100%

SMILES: CC[C@H](C)[C@H](NC(=O)CNC(=O)[C@H](CC(C)C)NC(=O)[C@H](CC(C)C)NC(=O)[C@H](CCC(N)=O)NC(=O)[C@H](CCC(N)=O)NC(=O)[C@H](CC(=O)O)NC(=O)[C@H](CCCCN)NC(=O)[C@H](CC(C)C)NC(=O)[C@H](Cc1ccc(O)cc1)NC(=O)[C@H](CCCNC(=N)N)NC(=O)[C@H](CCC(=O)O)NC(=O)[C@@H](NC(=O)[C@H](C)NC(=O)[C@H](CC(C)C)NC(=O)[C@@H](NC(=O)[C@@H](N)CCCNC(=N)N)[C@@H](C)CC)C(C)C)C(=O)N[C@@H](Cc1c[nH]c2ccccc12)C(=O)NCC(=O)N[C@H]1CSSC[C@@H](C(=O)N[C@H](C(=O)N[C@H](C(=O)N[C@@H](C)C(=O)N[C@H](C(=O)N2CCC[C@H]2C(=O)N[C@@H](Cc2c[nH]c3ccccc23)C(=O)N[C@@H](CC(N)=O)C(=O)N[C@@H](C)C(=O)N[C@@H](CO)C(=O)O)C(C)C)[C@@H](C)O)[C@@H](C)O)NC(=O)[C@H]([C@@H](C)CC)NC(=O)[C@H](CC(C)C)NC(=O)[C@H](CCCCN)NC(=O)CNC(=O)[C@H](CO)NC1=O [Peptide 87c] (H-RILAVERYLKDQQLLGIWGCSGKLICTTAVPWNAS-OH; disulfide 20-26)
- % Positive Sera correctly Idenfitied (HIV-1 positive sera): 99%
- Relative performance in ELISA (optical density) (HIV-1-antibodies; serum 87V103, dilution 1/50): 0.011 optical density units
- Relative performance in ELISA (optical density) (HIV-1-antibodies; serum 1428, dilution 1/50): >2.0 optical density units
- Relative performance in ELISA (optical density) (HIV-1-antibodies; serum M-5, dilution 1 50): >2.0 optical density units
- Relative performance in ELISA (optical density) (HIV-1-antibodies; serum M-5, dilution 1/100): >2.0 optical density units
- Relative performance in ELISA (optical density) (HIV-1-antibodies; serum M-5, dilution 1/200): >2.0 optical density units
- Relative performance in ELISA (optical density) (HIV-1-antibodies; serum M-5, dilution 1/400): >2.0 optical density units
- Relative performance in ELISA (optical density) (HIV-1-antibodies; serum M-5, dilution 1/800): 1.854 optical density units
- Relative performance in ELISA (optical density) (HIV-1-antibodies; serum M-7, dilution 1/50): >2.0 optical density units
- Relative performance in ELISA (optical density) (HIV-1-antibodies; serum M-7, dilution 1/100): >2.0 optical density units
- Relative performance in ELISA (optical density) (HIV-1-antibodies; serum M-7, dilution 1/200): 1.729 optical density units
- Relative performance in ELISA (optical density) (HIV-1-antibodies; serum M-7, dilution 1/400): 1.348 optical density units
- Relative performance in ELISA (optical density) (HIV-1-antibodies; serum M-7, dilution 1/800): 0.611 optical density units
- Relative performance in ELISA (optical density) (HIV-1-antibodies; serum M-8, dilution 1/50): >2.0 optical density units
- Relative performance in ELISA (optical density) (HIV-1-antibodies; serum M-8, dilution 1/100): >2.0 optical density units
- Relative performance in ELISA (optical density) (HIV-1-antibodies; serum M-8, dilution 1/200): 1.655 optical density units
- Relative performance in ELISA (optical density) (HIV-1-antibodies; serum M-8, dilution 1/400): 1.064 optical density units
- Relative performance in ELISA (optical density) (HIV-1-antibodies; serum M-8, dilution 1/800): 0.384 optical density units
- Relative performance in ELISA (optical density) (HIV-1-antibodies; serum M-16, dilution 1/50): >2.0 optical density units
- Relative performance in ELISA (optical density) (HIV-1-antibodies; serum M-16, dilution 1/100): >2.0 optical density units
- Relative performance in ELISA (optical density) (HIV-1-antibodies; serum M-16, dilution 1/200): >2.0 optical density units
- Relative performance in ELISA (optical density) (HIV-1-antibodies; serum M-16, dilution 1/400): >2.0 optical density units
- Relative performance in ELISA (optical density) (HIV-1-antibodies; serum M-16, dilution 1/800): 1.962 optical density units
- A B (titer 87c cyclic over titer 87 linear) ([1]; 10% Acetic Acid (pH 2.7), serum M-5): 3.0
- A B (titer 87c cyclic over titer 87 linear) ([1]; 10% Acetic Acid (pH 2.7), serum M-7): 3.9
- A B (titer 87c cyclic over titer 87 linear) ([1]; 10% Acetic Acid (pH 2.7), serum M-8): 4.5
- A B (titer 87c cyclic over titer 87 linear) ([1]; 10% Acetic Acid (pH 2.7), serum M-16): 3.7
- A B (titer 87c cyclic over titer 87 linear) ([1]; Carbonate Bicarbonate 0.1M (pH 9.6), serum M-5): 1.3
- A B (titer 87c cyclic over titer 87 linear) ([1]; Carbonate Bicarbonate 0.1M (pH 9.6), serum M-7): 1.8
- A B (titer 87c cyclic over titer 87 linear) ([1]; Carbonate Bicarbonate 0.1M (pH 9.6), serum M-8): 2.2
- A B (titer 87c cyclic over titer 87 linear) ([1]; Carbonate Bicarbonate 0.1M (pH 9.6), serum M-16): 1.7
- ratios of sensitivities measured with the cyclic peptide over the linear 87 peptide, average ([1]; carbonate buffer (pH 9.6), average over four sera): 1.8
- serum titer (serum dilution giving an absorbancy reading of 1.0) ([1]; coating buffer 10% Acetic Acid (pH 2.7), serum M-5): 13 500
- serum titer (serum dilution giving an absorbancy reading of 1.0) ([1]; coating buffer 10% Acetic Acid (pH 2.7), serum M-7): 9 000
- serum titer (serum dilution giving an absorbancy reading of 1.0) ([1]; coating buffer 10% Acetic Acid (pH 2.7), serum M-8): 6 300
- serum titer (serum dilution giving an absorbancy reading of 1.0) ([1]; coating buffer 10% Acetic Acid (pH 2.7), serum M-16): 56 000
- serum titer (serum dilution giving an absorbancy reading of 1.0) ([1]; coating buffer Carbonate Bicarbonate 0.1M (pH 9.6), serum M-5): 13 500
- serum titer (serum dilution giving an absorbancy reading of 1.0) ([1]; coating buffer Carbonate Bicarbonate 0.1M (pH 9.6), serum M-7): 11 000
- serum titer (serum dilution giving an absorbancy reading of 1.0) ([1]; coating buffer Carbonate Bicarbonate 0.1M (pH 9.6), serum M-8): 6500
- serum titer (serum dilution giving an absorbancy reading of 1.0) ([1]; coating buffer Carbonate Bicarbonate 0.1M (pH 9.6), serum M-16): 56 000
- stability in solution (HPLC, Ellman's test) [2]: remained cyclic
